Entries after “also recorded” stand apart in the source; their conditions may differ.
Experiments:
[1] = tested on: primary AML cells; test: Clonogenicity of primary AML cells in MethoCult; format: cell-based, human
Method: Effect of UR778Br on clonogenicity of primary AML cells: Vials of primary AML cells cryopreserved in liquid nitrogen were thawed rapidly in a 37° C. water bath. The contents, generally one ml, were transferred to a 15 ml conical tube, one tenth the volume of DNase was added (bovine pancreas deoxyribonuclease, Sigma Aldrich D4263-5VL), it was mixed gently and incubated in a 37° C. water bath for 90 seconds. 9 ml of DMEM with 2% FBS was added dropwise and mixed gently. Samples were then centrifuged for 5 to 6 minutes, aspirated and the supernatant discarded. 70 μl of DNase were added and mixed gently. 10 ml of DMEM with 2% FBS was added slowly to resuspend and then the sample was centrifuged for 5 to 6 minutes. Supernatant was discarded, 50 μl of DNase was added, sample was mixed gently and the pellet was resuspended in 5 ml of IMDM+10% FBS, L-glutamine 2 mM (GIBCO) and penicillin and streptomycin (50 units and 50 mcg/ml). The cells were counted in a hemocytometer with viability estimated by Trypan blue dye exclusion.
The cell suspension was then added to MethoCult Enriched H4435 (Stem Cell Technologies, catalog number 04435) to achieve a final concentration between 5×10^4 to 2×10^5/ml. DMSO, UR778Br or cytarabine were added to achieve indicated concentrations. […] The plates were incubated 37° C., 5% CO2 incubator and colonies were counted at 7, 14 and 21 days. […]

[2] = tested on: primary human AML cells; test: Viability of primary AML cells (annexin-V/DAPI flow cytometry); format: cell-based; settings: dose range, 48 hours
Method: Effect of UR778Br on apoptosis in primary AML cells: Primary AML cells were treated with DMSO or varying concentrations of UR778Br and cytarabine 5 μM and cultured in a 37° C., 5% CO2 incubator for 24 and 48 hours. The cells were stained for 15 min in annexin-V binding buffer (10 mM HEPES/NaOH, pH 7.4, 140 mM NaCl, 2.5 mM CaCl2)) containing annexin-V-APC antibody (BD Biosciences) and DAPI (Sigma). Stained cells were analyzed immediately on using a LSRII™ flow cytometer (BD Biosciences, San Jose, CA, USA).
Effect of UR778Br on viability of primary human AML cells: Vials of primary AML cells cryopreserved in liquid nitrogen were thawed rapidly in a 37° C. water bath. The contents, generally one ml, were transferred to a 15 ml conical tube, one tenth the volume of DNase was added (bovine pancreas deoxyribonuclease, Sigma Aldrich D4263-5VL), it was mixed gently and incubated in a 37° C. water bath for 90 seconds. 9 ml of DMEM with 2% FBS was added dropwise and mixed gently. Samples were then centrifuged for 5 to 6 minutes, aspirated and the supernatant discarded. […] The cells were counted in a hemocytometer with viability estimated by Trypan blue dye exclusion.
Primary cells were cultured in 37° C., 5% CO2 incubator. […] Stained cells were analyzed immediately on BD FACS Celesta, flow cytometer (BD Biosciences). Viable cells were scored as annexin-V and DAPI double negative cells.

[3] = tested on: normal bone marrow cells; test: Colony formation by normal bone marrow in MethoCult; format: cell-based, human
Method: Effect of UR778Br on colony formation by normal bone marrow: Vials of cryopreserved aliquots were thawed the in a 37° C. water bath. Nine ml of RPMI with 2% FBS were added dropwise to the cells in 1 ml of freezing media, centrifuged at 1000 rpm for 5 min and re-suspended in 5 ml of RPMI. The cells were counted in a hemocytometer and viability estimated by Trypan blue dye exclusion. The cells were added to MethoCult H4435 Enriched (Stem Cell Technologies, catalog number 04435) to achieve concentrations of 5×10^4 to 1×10^5 viable cells/ml. UR778Br was added at indicated concentrations. The mixture was vortexed and allowed to settle. Each condition was dispersed in triplicate or quadruplicate. The plates were incubated at 37° C. with 5% CO2 in a humidified incubator and colonies were counted at 7, 14 and 21 days. Images of colony forming unit assays were acquired using the Celligo imaging cytometer (Nexcelom Biosciences) at a resolution of 1 pixel/μm. Celligo instrument software was used for image processing.

[4] = tested on: leukemia cell lines; test: Screening of hits and structural analogs for effects on proliferation of leukemia cell lines; format: cell-based, human; settings: dose range tested; data not shown
[5] = tested on: MOLM13, MV411, THP1 and U937 cells; test: Apoptosis by Western blot of cleaved PARP; format: cell-based, human; settings: 25 μM, 24 hours
Method: For measurement of apoptosis by Western blot the MOLM13, MV41, THP1 and U937 cells treated with UR778Br for 24 hours were lysed and expression of cleaved PARP, an indicator of apoptosis, was measured as described above.

[6] = tested on: MOLM13, MV411, THP1 and U937; test: Viability of cell lines by the MTS assay; format: cell-based, human; settings: range of concentrations, 48 hours
Method: Effect of UR778Br on viability of cell lines: Viability of MOLM13, MV411, THIP1 and U937 was determined by the MTS assay. Briefly, 20,000 to 40,000 cells/well were seeded in triplicate wells of a 96 well plate and treated with a range of UR778Br doses and incubated for 48 to 72 hours at 37° C. with 5% CO2 in a humidified incubator. Cell Titre96R Aqueous One Solution Cell Proliferation Assay reagent (Promega Corp., catalog number: G3580) diluted 1-10 in complete RPMI medium was added and cells were incubated for 4 hours. The optical density (OD) values were read at 490 nm wavelength using BioRad iMark microplate reader. Experiments were performed in triplicates; data are expressed as the mean of the triplicate determinations (X±SD) of a representative experiment in % of absorbance by samples with untreated cells [=100%].

[7] = tested on: MOLM13, MV411, THP1 and U937 cells; test: Cell cycle analysis by flow cytometry; format: cell-based, human; settings: range of concentrations, 24 hours
Method: Cell cycle analysis: For cell cycle analysis, Leukemia cell lines were washed with 1× phosphate buffered saline (PBS Mediatech, Inc., Manassas, VA, USA) and centrifuged at 1200 rpm for 8 minutes. Cell pellet was re-suspended in 100 microliters of Cytofix/Cytoperm™ (BD Biosciences, Cat No. 554722) buffer for at room temperature (RT) for 15 minutes. Cell suspension washed with 1×PBS and centrifuged at 1200 rpm for 8 minutes and re-suspended in 1 ml of culture media containing 1 μl of Vybrant® DyeCycler™ Violet Stain (ThermoFisher Scientific, Cat No. V35003). Cell suspensions were incubated at 37° C. in a 5% CO2 incubator for least 30 minutes. Cell suspensions were analyzed using a LSRII™ flow cytometer (BD Biosciences, San Jose, CA, USA). A minimum of 8,000 cells were included in the analysis of each sample. Data were analyzed by FlowJo software (Tree Star, Ashland, OR, USA) and collected on linear scale for forward and side scatter (i.e., FSC and SSC, respectively) and on a linear scale for violet fluorescence channel […].

[8] = tested on: IQGAP1; test: IQGAP1 expression in MOLM13 cells (immunoblot); format: cell-based, human; settings: 25 μM, 24 hours
[9] = tested on: MOLM13, MV411, THP1 and U937; test: Colony formation of leukemia cell lines in MethoCult; format: cell-based, human; settings: 6.25 μM
Method: Effect of UR778Br on colony formation cell lines: MOLM13, MV411, THP1 and U937 were added to MethoCult H4435 Enriched (Stem Cell Technologies, catalog number 04435) to achieve concentration of 2000 cells/ml, 500 cells/ml and 200 cells/ml. UR778br was added to achieve a range of concentrations. Each condition was done in triplicate. The plates were incubated at 37° C. with 5% CO2 in a humidified incubator Colonies were counted at 7, 14 and 21 days.

[10] = tested on: MOLM13, MV411, THP1 and U937 cells; test: Proliferation of cell lines by counting cells in a hemocytometer; format: cell-based, human; settings: range of concentrations, 72 hours
Method: Effect of UR778Br on proliferation of cell lines: Proliferation of MOLM13, MV411, THP1 and U937 cells was measured by counting cells in a hemocytometer. Briefly, cells were seeded at 20,000 to 40,000 cells/well in triplicate wells of a 96 well plate and treated with a range of UR778Br doses and incubated at 37° C. with 5% CO2 in a humidified incubator. Cell counts were determined at 24-, 48- and 72 hours.

## CCCCN1C(=O)C(O)(CC(=O)c2ccccc2O)c2cc(Br)ccc21 (stereo not shown) [UR778Br]
[1]; concentrations as low as 6.25 μM
  colony formation by three primary AML cells: blocks colony formation
[1]; varying concentrations
  colony formation units of primary AML cells: inhibition of the colony formation units
[2]
  viability (annexin-V and DAPI double negative cells): dose dependent decrease in viability
[3]; 6.25 μM
  colony formation by normal bone marrow: did not inhibit colony formation by normal bone marrow; also recorded: majority of normal bone marrow samples do not exhibit reduced colony formation
[3]; 12.5 μM compared with 6.25 μM
  colony formation by normal primary bone marrow cells: inhibition of the colony formation units to a greater degree than at 6.25 μM concentration
[4]
  inhibition of proliferation of leukemia cells (anti-proliferative activity): most potent structural analog of AK778
[5]
  apoptosis (expression of cleaved PARP): apoptosis in MOLM13 cells
[5]; listed as UR778B2
  apoptosis (expression of cleaved PARP): apoptosis in the four cell lines
[6]
  viability: decreased viability in AML cell lines in a dose-dependent fashion; also recorded: dose-dependent decrease in viability
[7]
  cell cycle arrest: cell cycle arrest in the G2M phase in a dose-dependent manner; also recorded: dose-dependent arrest in G2/M phase of the cell cycle
[8]
  expression of IQGAP1: decreased expression of IQGAP1
[9]
  colony formation units: suppress clonogenic progenitors; also recorded: inhibition of the colony formation units
[10]
  proliferation: dose dependent reduction of proliferation

From patent publication US12076310B2, “Compounds and methods for the treatment of acute myelogenous leukemia” (University of Rochester, priority 2021, dated 2024)
